# Publication PMC2806265, “Divergence of allosteric effects of rapacuronium on binding and function of muscarinic receptors” (BMC Pharmacology, 2009)
# Marks after values point to notes of the source that are not given here.
# Legend:
# M3 muscarinic receptor [1] = target: T1, M3 muscarinic receptor (Homo sapiens, UniProt P20309); experiment: Effect of rapacuronium on 1 nM [3H]NMS binding
# T1 construct: host or cells: CHO cells, stably transfected; membranes
# Excerpt: (§1) Cooperativity factor greater than 1 denotes negative cooperativity and less than 1 positive cooperativity. Due to its log-normal error distribution factors of cooperativity are expressed as negative logarithms (pα) through the manuscript so negative values denotes negative cooperativity and positive value denotes positive cooperativity.
# M1 muscarinic receptor [2] = target: T2, M1 muscarinic receptor (Homo sapiens, UniProt P11229); experiment: Effect of rapacuronium on 1 nM [3H]NMS binding
# T2 construct: host or cells: CHO cells, stably transfected; membrane preparation
# T2 sequence (P11229 1-460): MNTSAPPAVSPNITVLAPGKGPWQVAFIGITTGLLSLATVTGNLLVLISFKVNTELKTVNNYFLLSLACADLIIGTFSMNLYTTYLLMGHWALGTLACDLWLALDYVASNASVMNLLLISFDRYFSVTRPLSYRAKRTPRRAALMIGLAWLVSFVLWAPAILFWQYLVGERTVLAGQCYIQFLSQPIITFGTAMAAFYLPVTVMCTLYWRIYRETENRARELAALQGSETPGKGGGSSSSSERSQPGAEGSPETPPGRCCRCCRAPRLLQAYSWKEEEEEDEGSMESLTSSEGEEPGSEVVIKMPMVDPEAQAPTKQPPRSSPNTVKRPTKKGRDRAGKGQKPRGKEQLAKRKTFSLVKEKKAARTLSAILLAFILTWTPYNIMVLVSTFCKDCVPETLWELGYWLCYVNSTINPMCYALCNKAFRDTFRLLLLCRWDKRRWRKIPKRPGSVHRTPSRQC
# Excerpt: as §1
# M2 muscarinic receptor = target: T3, M2 muscarinic receptor (Homo sapiens, UniProt P08172); experiment: Effect of rapacuronium on 1 nM [3H]NMS binding; parameters: host or cells: CHO cells, stably transfected; membrane preparation
# T3 sequence (P08172 1-466): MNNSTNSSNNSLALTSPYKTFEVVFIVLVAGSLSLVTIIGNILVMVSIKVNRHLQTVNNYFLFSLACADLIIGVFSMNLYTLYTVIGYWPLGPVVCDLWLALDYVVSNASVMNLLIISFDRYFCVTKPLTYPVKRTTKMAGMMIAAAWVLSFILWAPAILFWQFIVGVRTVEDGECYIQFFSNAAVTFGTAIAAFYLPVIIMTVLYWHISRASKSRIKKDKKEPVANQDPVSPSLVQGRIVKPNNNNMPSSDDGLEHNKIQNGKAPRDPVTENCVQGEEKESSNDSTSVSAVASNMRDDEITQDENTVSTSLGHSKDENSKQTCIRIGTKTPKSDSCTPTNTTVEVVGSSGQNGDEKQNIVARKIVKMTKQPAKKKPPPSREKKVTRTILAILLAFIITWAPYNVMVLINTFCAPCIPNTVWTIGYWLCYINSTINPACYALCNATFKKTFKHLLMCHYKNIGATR
# Excerpt: as §1
# M5 muscarinic receptor = target: T4, M5 muscarinic receptor (Homo sapiens, UniProt P08912); experiment: [35S]GTPγS binding to membranes; assay type: biochemical; parameters: host or cells: CHO cells, stably transfected; membranes; settings: for EMAX of ACh on [^35S]GTPγS binding: fold of basal
# T4 sequence (P08912 1-532): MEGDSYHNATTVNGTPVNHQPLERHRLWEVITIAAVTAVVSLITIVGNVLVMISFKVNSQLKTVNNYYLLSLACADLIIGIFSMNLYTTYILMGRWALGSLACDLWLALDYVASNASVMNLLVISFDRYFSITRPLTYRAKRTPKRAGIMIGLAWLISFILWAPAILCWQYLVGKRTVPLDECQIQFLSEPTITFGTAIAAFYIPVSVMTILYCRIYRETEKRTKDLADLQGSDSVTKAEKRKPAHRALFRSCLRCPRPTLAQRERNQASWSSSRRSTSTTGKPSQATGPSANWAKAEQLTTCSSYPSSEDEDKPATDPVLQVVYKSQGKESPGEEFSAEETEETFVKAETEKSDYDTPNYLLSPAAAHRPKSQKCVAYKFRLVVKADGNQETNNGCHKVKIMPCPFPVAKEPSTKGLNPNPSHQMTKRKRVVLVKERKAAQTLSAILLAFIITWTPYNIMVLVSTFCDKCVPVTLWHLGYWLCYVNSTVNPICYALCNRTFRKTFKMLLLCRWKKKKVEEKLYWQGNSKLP
# Protocol: For determination of [^35S]GTPγS binding to G-proteins in membranes a final concentration of 200 pM (M1, M3 and M5 receptors) or 500 pM (M2 and M4 receptors) of [^35S]GTPγS was used. Incubation medium was supplemented with 5 μM (M1, M3 and M5 receptors) or 50 μM (M2 and M4 receptors) GDP. […] Incubation with [^35S]GTPγS was carried out for 20 min and free ligand was removed by filtration as described above. Filtration and washing with ice-cold water lasted for 9 s (wash-aspirate button time).
# M3 muscarinic receptor [3] = target: T1, M3 muscarinic receptor; assay type: binding
# Excerpt: (§2) y, radioligand binding at time x normalized to binding at time 0; koff1 and koff2, dissociation rate constants; f2, fraction of binding site with dissociation rate constant koff2. When both Eq. 7a and 7b were fitted to data the better fit was chosen based on sum of squares F-test and runs test.
# M1 muscarinic receptor [4] = target: T2, M1 muscarinic receptor; assay type: binding; settings: + 100 μM rapacuronium
# Excerpt: as §2
# M3 muscarinic receptor [5] = target: T1, M3 muscarinic receptor; experiment: Effect of rapacuronium on high-affinity 20 nM [3H]ACh binding
# Excerpt: as §1
# M1 muscarinic receptor [6] = target: T2, M1 muscarinic receptor; experiment: as above
# Excerpt: as §1
# M1 muscarinic receptor [7] = target: T2, M1 muscarinic receptor; experiment: Effect of rapacuronium on low-affinity ACh binding ([3H]NMS + GTPγS + ACh)
# Excerpt: Data are expressed as percent of specific binding in the absence of rapacuronium. […] Data are means ± SE from 3 independent experiments performed in quadruplicates. Curves are fits of Eq. 3 (circles) and Eq. 4 (squares and triangles) to data prior to normalization.
# [8] = M3, negative value = negative cooperativity
# [9] = read-out: pKA of rapacuronium (converted)
# [10] = M1, negative value = negative cooperativity
# T1 sequence (P20309 whole entry): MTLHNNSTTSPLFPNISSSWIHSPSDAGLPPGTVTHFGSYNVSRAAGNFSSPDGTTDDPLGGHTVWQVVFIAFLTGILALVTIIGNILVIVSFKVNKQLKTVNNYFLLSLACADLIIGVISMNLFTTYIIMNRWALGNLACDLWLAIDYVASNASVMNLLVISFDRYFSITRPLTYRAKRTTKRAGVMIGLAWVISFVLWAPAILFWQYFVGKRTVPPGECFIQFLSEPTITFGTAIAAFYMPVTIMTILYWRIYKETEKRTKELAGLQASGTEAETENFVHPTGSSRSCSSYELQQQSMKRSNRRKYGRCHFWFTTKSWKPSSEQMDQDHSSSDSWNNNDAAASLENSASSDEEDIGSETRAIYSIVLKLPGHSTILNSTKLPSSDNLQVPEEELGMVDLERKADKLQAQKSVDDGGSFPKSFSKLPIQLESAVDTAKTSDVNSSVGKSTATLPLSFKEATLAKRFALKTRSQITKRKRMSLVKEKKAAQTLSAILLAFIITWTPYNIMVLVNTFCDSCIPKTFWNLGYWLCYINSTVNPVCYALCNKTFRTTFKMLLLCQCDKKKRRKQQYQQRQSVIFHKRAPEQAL
structure (smiles),measurement,setting,value
C=CC[N+]1([C@H]2C[C@H]3[C@@H]4CC[C@H]5C[C@H](OC(C)=O)[C@@H](N6CCCCC6)C[C@]5(C)[C@H]4CC[C@]3(C)[C@H]2OC(=O)CC)CCCCC1 [rapacuronium],"pα, cooperativity with [^3H]NMS",M3 muscarinic receptor [1]; [8],-1.11 ± 0.05
same,Kd,M3 muscarinic receptor [1]; [9],17.8 µM
same,"pα, cooperativity with [^3H]NMS",M1 muscarinic receptor [2]; [10],-1.08 ± 0.05
same,Kd,M1 muscarinic receptor [2]; [9],4.27 µM
same,decrease in affinity of [^3H]NMS (cooperativity),M2 muscarinic receptor; M2,6.8 fold
same,"pα, cooperativity with [^3H]NMS","M2 muscarinic receptor; M2, negative value = negative cooperativity",-0.83 ± 0.07
same,Kd,M2 muscarinic receptor; [9],2.57 µM
same,EC50,M5 muscarinic receptor,61.7 µM
same,decrease in ACh EC50,"M5 muscarinic receptor; M5, 0.1 μM rapacuronium",1.5 fold
same,decrease in ACh EC50,"M5 muscarinic receptor; M5, 1 μM rapacuronium",4 fold
same,EMAX of ACh on [^35S]GTPγS binding,"M5 muscarinic receptor; M5, + 0.1 μM rapacuronium",2.10 ± 0.09
same,EMAX of ACh on [^35S]GTPγS binding,"M5 muscarinic receptor; M5, + 1 μM rapacuronium",2.04 ± 0.09
same,EMAX of ACh on [^35S]GTPγS binding,"M5 muscarinic receptor; M5, + 10 μM rapacuronium",2.22 ± 0.09
same,EMAX of rapacuronium on [^35S]GTPγS binding,"M5 muscarinic receptor; M5, rapacuronium alone, normalized to absence of rapacuronium",0.75 ± 0.07
same,decrease in rate of [^3H]NMS dissociation,M3 muscarinic receptor [3]; 100 μM rapacuronium,40%
same,"f2, fraction of sites with faster dissociation",M3 muscarinic receptor [3]; + 100 μM rapacuronium,20 ± 4%
same,koff1 of [^3H]NMS dissociation,M3 muscarinic receptor [3]; + 100 μM rapacuronium,0.031 ± 0.002* min^-1
same,koff2 of [^3H]NMS dissociation,M3 muscarinic receptor [3]; + 100 μM rapacuronium,0.000967 ± 0.00015 s⁻¹
same,"f2, fraction of sites with faster dissociation",M1 muscarinic receptor [4],14 ± 3%
same,koff1 of [^3H]NMS dissociation,M1 muscarinic receptor [4],0.014 ± 0.001* min^-1
same,koff2 of [^3H]NMS dissociation,M1 muscarinic receptor [4],0.00567 ± 0.00083 s⁻¹
same,"pα, cooperativity with [^3H]ACh high affinity binding",M3 muscarinic receptor [5]; [8],-1.26 ± 0.05
same,Kd,M3 muscarinic receptor [5]; [9],15.8 µM
same,"pα, cooperativity with [^3H]ACh high affinity binding",M1 muscarinic receptor [6]; [10],-1.30 ± 0.07
same,Kd,M1 muscarinic receptor [6]; [9],4.27 µM
same,Kd,M1 muscarinic receptor [7],4.68 µM
same,"pβ, cooperativity with ACh low affinity binding",M1 muscarinic receptor [7]; [10],-1.32 ± 0.06
